Results published in PubChem BioAssay AID248 (DTP/NCI, 2004).
Where “and” joins values, the source holds several entries; their conditions need not be identical. Equal entries are not always repeated. Toxic doses and inconclusive results are not listed. No stated cut-off is given here; in the data, active means T/C of 150% or more; inactive means T/C below 125%.

System: L1210 leukemia ip in BDF1 mice, survival T/C
Experiment: NCI In Vivo Anticancer Drug Screen. Data for tumor model L1210 Leukemia (intraperitoneal) in B6D2F1 (BDF1) mice
Settings: endpoint: mean survival time, higher = longer survival
How it was run: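 Each compound was tested against a transplantable tumor grown in mice. The endpoint was survival, with treated animals benchmarked against vehicle controls as a simple ratio.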

[1] = dose: 100.0 mg/kg/injection, schedule: Q01DX001 (ip), vehicle: saline
[2] = dose: 200.0 mg/kg/injection, schedule: Q01DX001 (ip), vehicle: saline
[3] = dose: 400.0 mg/kg/injection, schedule: Q01DX001 (ip), vehicle: saline
[4] = dose: 100.0 mg/kg/injection, schedule: Q04DX003 (ip), vehicle: saline
[5] = dose: 200.0 mg/kg/injection, schedule: Q04DX003 (ip), vehicle: saline
[6] = dose: 400.0 mg/kg/injection, schedule: Q04DX003 (ip), vehicle: saline
[7] = dose: 100.0 mg/kg/injection, schedule: Q01DX009 (ip), vehicle: Klucel (hydroxypropylcellulose) (HPC)
[8] = dose: 200.0 mg/kg/injection, schedule: Q01DX009 (ip), vehicle: Klucel (hydroxypropylcellulose) (HPC)
[9] = dose: 400.0 mg/kg/injection, schedule: Q01DX009 (ip), vehicle: Klucel (hydroxypropylcellulose) (HPC)
[10] = dose: 100.0 mg/kg/injection, schedule: Q01DX Z (ip), vehicle: methylcellulose (MC)
[11] = dose: 200.0 mg/kg/injection, schedule: Q01DX Z (ip), vehicle: methylcellulose (MC)
[12] = dose: 50.0 mg/kg/injection, schedule: Q01DX001 (ip), vehicle: saline
[13] = dose: 100.0 mg/kg/injection, schedule: Q04DX003 (ip), vehicle: Klucel (hydroxypropylcellulose) (HPC)
[14] = dose: 200.0 mg/kg/injection, schedule: Q04DX003 (ip), vehicle: Klucel (hydroxypropylcellulose) (HPC)
[15] = dose: 400.0 mg/kg/injection, schedule: Q04DX003 (ip), vehicle: Klucel (hydroxypropylcellulose) (HPC)
[16] = dose: 100.0 mg/kg/injection, schedule: Q04DX002 (ip), vehicle: Klucel (hydroxypropylcellulose) (HPC)
[17] = dose: 100.0 mg/kg/injection, schedule: Q01DX009 (ip), vehicle: saline with Tween-80
[18] = dose: 200.0 mg/kg/injection, schedule: Q01DX009 (ip), vehicle: saline with Tween-80

Measured: T/C

C#CCCCCC#CCCCCCl
inactive: dose: 25.0 mg/kg/injection, schedule: Q01DX009 (ip), vehicle: acetone 104 % of control | dose: 50.0 mg/kg/injection, schedule: Q01DX009 (ip), vehicle: acetone 95 % of control | dose: 100.0 mg/kg/injection, schedule: Q01DX009 (ip), vehicle: acetone 87 % of control | dose: 100.0 mg/kg/injection, schedule: Q04DX003 (ip), vehicle: acetone 90 % of control | dose: 200.0 mg/kg/injection, schedule: Q04DX003 (ip), vehicle: acetone 93 % of control

CC(C)CCC1(C)CC(=O)Nc2ccccc21 (centres undefined)
inactive: [1] 97 % of control | [2] 94 % of control | [3] 95 % of control

COC(=O)c1nc[nH]c1C(=O)OC
inactive: [4] 112 % of control | [5] 93 % of control | [6] 109 % of control

Cc1c(O)c2cccc(-c3ccccc3)c2oc1=O
inactive: [4] 87 % of control | [5] 91 % of control | [6] 109 % of control

CCC(O)C1CCCO1 (centres undefined)
inactive: dose: 25.0 mg/kg/injection, schedule: Q04DX002 (ip), vehicle: saline 103 % of control | dose: 50.0 mg/kg/injection, schedule: Q04DX002 (ip), vehicle: saline 92 % of control | [1] 104 % of control | dose: 100.0 mg/kg/injection, schedule: Q04DX002 (ip), vehicle: saline 103 % of control | [2] 95 % of control | [3] 93 % of control

O=C(Nc1ccccc1)Nc1ccc([N+](=O)[O-])cc1
inactive: [7] 91 % of control | dose: 100.0 mg/kg/injection, schedule: Q04DX003 (ip), vehicle: other 93 % of control | [8] 96 % of control | dose: 200.0 mg/kg/injection, schedule: Q04DX003 (ip), vehicle: other 100 % of control | [9] 86 % of control | dose: 400.0 mg/kg/injection, schedule: Q04DX003 (ip), vehicle: other 100 % of control

O=Nc1ccc(-[n+]2ccccc2)c([N+](=O)[O-])c1
inactive: dose: 75.0 mg/kg/injection, schedule: Q01DX001 (ip), vehicle: saline 98 % of control

O=C(O)c1[nH]c(=O)[nH]c(=O)c1CN1CCCCC1
inactive: [10] 93 % of control | [11] 93 % of control

O=C(CCCNC(=O)OCc1ccccc1)NCCCCCCNCCCCCCNC(=O)CCCNC(=O)OCc1ccccc1
inactive: [12] 95 % of control | [1] 95 % of control | [2] 98 % of control | [3] 98 % of control

IC1CCC2OC1CCC2I (centres undefined)
inactive: dose: 100.0 mg/kg/injection, schedule: Q04DX002 (ip), vehicle: saline with Tween-80 94 % of control | dose: 200.0 mg/kg/injection, schedule: Q04DX002 (ip), vehicle: saline with Tween-80 94 % of control | dose: 400.0 mg/kg/injection, schedule: Q04DX002 (ip), vehicle: saline with Tween-80 109 % of control

Cc1nc(SCc2ccc(Cl)cc2)[nH]c(=O)c1CC(C)O (centres undefined)
inactive: [4] 97 % of control | [5] 89 % of control | [6] 89 % of control

COc1ccc(C(=O)/C=C/c2ccc(OC)c(OC)c2)cc1
inactive: [13] 95 % of control | [14] 92 % of control | [15] 100 % of control

O=c1[nH]c(=O)[nH]c(=S)[nH]1
inactive: [10] 98 % of control | [11] 87 % of control

Cc1cnnn1-c1cccc(C(F)(F)F)c1
inactive: dose: 25.0 mg/kg/injection, schedule: Q04DX002 (ip), vehicle: Klucel (hydroxypropylcellulose) (HPC) 92 % of control | dose: 50.0 mg/kg/injection, schedule: Q04DX002 (ip), vehicle: Klucel (hydroxypropylcellulose) (HPC) 92 % of control | [16] 99 % of control and 88 % of control

O=C1c2ccccc2C(=O)N1OCCCBr
inactive: [12] 96 % of control | [1] 102 % of control | [2] 102 % of control | [3] 102 % of control

Nc1cc(C(=O)Nc2cccc(C3=NCCN3)c2)ccc1C(=O)Nc1cccc(C2=NCCN2)c1
inactive: dose: 7.5 mg/kg/injection, schedule: Q01DX Z (ip), vehicle: saline 113 % of control | dose: 10.0 mg/kg/injection, schedule: Q01DX Z (ip), vehicle: saline 110 % of control

O=C1NC(=O)c2ccc(S)c3cccc1c23
inactive: [17] 94 % of control | [18] 90 % of control | dose: 400.0 mg/kg/injection, schedule: Q01DX009 (ip), vehicle: saline with Tween-80 97 % of control

CCOC(=S)Nc1ccc(S(=O)(=O)c2ccc(NC(=S)OCC)cc2)cc1
inactive: [1] 96 % of control | [2] 92 % of control | [3] 98 % of control

CC(C)CCCC(C)C1CCC2C3CC=C4CC(S)CCC4(C)C3CCC12C (centres undefined)
inactive: dose: 60.0 mg/kg/injection, schedule: Q04DX003 (sc), vehicle: steriod suspending solution 100 % of control | dose: 120.0 mg/kg/injection, schedule: Q04DX003 (sc), vehicle: steriod suspending solution 109 % of control | dose: 240.0 mg/kg/injection, schedule: Q04DX003 (sc), vehicle: steriod suspending solution 105 % of control

COc1ccc(C(=O)/C=C/c2cccc(OC)c2O)cc1
inactive: dose: 75.0 mg/kg/injection, schedule: Q04DX003 (ip), vehicle: saline 101 % of control | dose: 150.0 mg/kg/injection, schedule: Q04DX003 (ip), vehicle: saline 91 % of control | dose: 300.0 mg/kg/injection, schedule: Q04DX003 (ip), vehicle: saline 101 % of control

CCCc1cn(C2OC(=O)c3ccccc32)c2ccccc12 (centres undefined)
inactive: [1] 96 % of control | [4] 109 % of control | [2] 105 % of control | [5] 97 % of control | [3] 102 % of control | [6] 101 % of control

O=C1CCCSc2ccccc21
inactive: [7] 106 % of control | [13] 108 % of control | [8] 104 % of control | [14] 106 % of control | [9] 106 % of control | [15] 101 % of control

Cc1ccc(N=Nc2ccc(N(C)C)cc2)cc1
inactive: [7] 90 % of control | [8] 92 % of control | [9] 90 % of control

Cc1ccc(Cl)cc1S
inactive: dose: 16.0 mg/kg/injection, schedule: Q01DX015 (ip), vehicle: saline 96 % of control | dose: 32.0 mg/kg/injection, schedule: Q01DX015 (ip), vehicle: saline 94 % of control | dose: 64.0 mg/kg/injection, schedule: Q01DX015 (ip), vehicle: saline 100 % of control | dose: 100.0 mg/kg/injection, schedule: Q01DX009 (ip), vehicle: water 100 % of control | dose: 100.0 mg/kg/injection, schedule: Q04DX003 (ip), vehicle: water 94 % of control | dose: 128.0 mg/kg/injection, schedule: Q01DX015 (ip), vehicle: saline 88 % of control

COc1ccc(C(=O)/C=C/c2cccc([N+](=O)[O-])c2)cc1
inactive: dose: 50.0 mg/kg/injection, schedule: Q01DX009 (ip), vehicle: saline with Tween-80 97 % of control | [17] 97 % of control | [18] 97 % of control

CCCCCC(Oc1ccc(Cl)cc1C)C(=O)O (centres undefined)
inactive: [16] 107 % of control | dose: 200.0 mg/kg/injection, schedule: Q04DX002 (ip), vehicle: Klucel (hydroxypropylcellulose) (HPC) 107 % of control

Cc1ccc(S(=O)(=O)NC(=O)NCCC(C)C)cc1
inactive: dose: 100.0 mg/kg/injection, schedule: Q04DX003 (ip), vehicle: saline with Tween-80 102 % of control | dose: 200.0 mg/kg/injection, schedule: Q04DX003 (ip), vehicle: saline with Tween-80 100 % of control | dose: 400.0 mg/kg/injection, schedule: Q04DX003 (ip), vehicle: saline with Tween-80 96 % of control

CC(CO)(CO)N1C(=O)c2cccc3cc([N+](=O)[O-])cc(c23)C1=O
inactive: [7] 112 % of control | [8] 107 % of control

OC(CBr)C(O)CBr (centres undefined)
inactive: dose: 12.5 mg/kg/injection, schedule: Q01DX009 (ip), vehicle: saline 101 % of control | dose: 25.0 mg/kg/injection, schedule: Q01DX009 (ip), vehicle: saline 97 % of control | dose: 50.0 mg/kg/injection, schedule: Q01DX009 (ip), vehicle: saline 97 % of control
